pIC50: −log10 of the molar value.

Holding throughout (assay type): functional, organism-based
Experiment [1] is filed under the species Mus musculus. In words: Compound was evaluated for inhibitory activity against production of nitric oxide (NO) induced by interferon-gamma (IFN-gamma) in mouse macrophages at a concentration of 0.01-40 uM.
The species entered for experiment [2] is Mus musculus. The experiment can be described thus: Compound was evaluated for inhibitory activity against production of nitric oxide (NO) induced by interferon-gamma (IFN-gamma) in mouse macrophages at a concentration of 0.01-40 uM; Toxic above 1 uM and not active below 1 uM.
For experiment [3], the species on record is Mus musculus. The experiment can be described thus: Compound was evaluated for inhibitory activity against production of nitric oxide (NO) induced by interferon-gamma (IFN-gamma) in mouse macrophages at a concentration of 0.1-1 uM.
The species named for experiment [4] is Mus musculus. In words: Compound was evaluated for inhibitory activity against production of nitric oxide (NO) induced by interferon-gamma (IFN-gamma) in mouse macrophages.

Consider `CC1(C)CC[C@]2(C(=O)O)CC[C@]3(C)[C@H](C(=O)C=C4[C@@]5(C)C=CC(=O)C(C)(C)[C@@H]5CC[C@]43C)[C@@H]2C1`, for which the pIC50 (as a rule, −log10 of the IC50, conventionally taken in molar units) in experiment [1] is 6.77.
In the case of `CC1(C)CC[C@]2(C(=O)O)CC[C@]3(C)C(=CC[C@@H]4[C@@]5(C)C=C(C=O)C(=O)C(C)(C)[C@@H]5CC[C@]43C)C2C1` (stereo not given in full), the pIC50 in experiment [2] was below 6.00.
For `CC1(C)CC[C@]2(C(=O)O)CC[C@]3(C)C(=CC[C@@H]4[C@@]5(C)C=C(O)C(=O)C(C)(C)[C@@H]5CC[C@]43C)C2C1` (stereo not given in full), in experiment [1], the pIC50 was 4.43.
On the same count and under the same terms, as for `CC1(C)CC[C@]2(C(=O)O)CC[C@]3(C)C(=CC(=O)[C@@H]4[C@@]5(C)C=CC(=O)C(C)(C)[C@@H]5CC[C@]43C)C2C1` (stereo not given in full), the figure is 5.85; as for `CC1(C)CC[C@]2(C(=O)O)CC[C@]3(C)C(=CC[C@@H]4[C@@]5(C)C=CC(=O)C(C)(C)[C@@H]5CC[C@]43C)C2C1` (stereo not given in full), 5.15; as for `COC1=C[C@]2(C)[C@H]3CC=C4C5CC(C)(C)CC[C@]5(C(=O)O)CC[C@@]4(C)[C@]3(C)CC[C@H]2C(C)(C)C1=O` (stereo not given in full), 4.72.
On the same count and under the same terms, the result for `CC1(C)CC[C@]2(C(=O)O)CC[C@]3(C)C(=CC[C@@H]4[C@@]5(C)C=C(C#N)C(=O)C(C)(C)[C@@H]5CC[C@]43C)C2C1` (stereo not given in full) reads 6.22.
`CC1(C)CC[C@]2(C(=O)O)CC[C@]3(C)[C@H](C(=O)C=C4[C@@]5(C)C=C(C#N)C(=O)C(C)(C)[C@@H]5CC[C@]43C)[C@@H]2C1` [BARDOXOLONE] had a pIC50 in experiment [3] of 9.40.
Regarding `C[C@@H]1C[C@H]2[C@@H]3CCC4=CC(=O)C=C[C@]4(C)[C@@]3(F)[C@@H](O)C[C@]2(C)[C@@]1(O)C(=O)CO` [DEXAMETHASONE], the negative logarithm of the IC50 (pIC50) in experiment [4] is 9.52.
In the case of `CC1(C)CC[C@]2(C(=O)O)CC[C@]3(C)C(=CC[C@@H]4[C@@]5(C)CC[C@H](O)C(C)(C)[C@@H]5CC[C@]43C)[C@@H]2C1` [OLEANOLIC_ACID], the negative logarithm of the IC50 (pIC50) in experiment [4] was below 4.40.
